Results from patent EP1007514B1, “HETEROCYCLIC KETONES AS NPY Y5 ANTAGONISTS” (BAYER CORPORATION, priority 1997, dated 1999).

Legend:
[1] = molecular target: T1, human NPY Y1 receptor subtype (Homo sapiens, UniProt P25929); assay: NPY Y1 receptor binding, [125I]PYY on SK-N-MC cells; conditions: test compounds at 5 µM final concentration, [125I]PYY about 50 pM, read-out: IC50 (µM) NPY receptor indicated hY1
T1 construct: host or cells: SK-N-MC cells
T1 sequence (P25929 1-384): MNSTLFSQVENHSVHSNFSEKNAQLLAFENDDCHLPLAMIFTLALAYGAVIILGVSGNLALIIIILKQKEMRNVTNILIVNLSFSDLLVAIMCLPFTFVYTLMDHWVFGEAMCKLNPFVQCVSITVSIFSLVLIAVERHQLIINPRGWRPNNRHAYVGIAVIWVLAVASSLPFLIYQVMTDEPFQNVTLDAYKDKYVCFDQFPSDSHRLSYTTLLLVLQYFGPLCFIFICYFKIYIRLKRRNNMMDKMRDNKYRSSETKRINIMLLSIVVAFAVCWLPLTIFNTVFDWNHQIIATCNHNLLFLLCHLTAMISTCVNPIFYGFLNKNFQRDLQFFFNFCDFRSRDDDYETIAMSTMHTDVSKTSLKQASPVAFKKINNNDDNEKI
Experimental: For instance, test compounds antagonistic to human NPY Y1 receptor subtype can be identified by a modified method of Gordon et al., J. Neurochem. 55:506-513,(1990), wherein SK-N-MC cells (ATCC, Rockville, ND) are plated in 24-well plates. Once confluent, the cells are rinsed with Dulbecco's phosphate buffered saline (DPBS). Cells are then preincubated in binding buffer containing serum-free DMEM, 25 mM HEPES (pH 7.3), 0.5% bovine serum albumin (BSA), 0.1% bacitracin and 0.1mM phenylmethylsulfonyl fluoride for 30 minutes at room temperature. Test compounds at a final concentration of 5 µM, and [^125I] PYY (about 50 pM:NEN-DuPont) are added to the wells, and the cells are incubated for an additional 3 hours at room temperature, followed by rinsing with ice-cold DPBS. Nonspecific binding is defined with 1 µM NPY. After lysing the cells with 1% Triton X-100, the amount of radioactivity in the lysates is quantitated with a gamma counter.

human Y4/PP1 = human Y4/PP1 (Homo sapiens, UniProt P50391); assay: NPY Y4/PP1 receptor membrane binding, [125I] human PP; conditions: membrane protein; 50 pM [125I] human PP; test compounds at 5 µM final concentration; read-out: IC50 (µM) NPY receptor indicated hY4/pp1
Experimental: Assays to determine binding affinity for human NPY Y2 and Y4/PP1 receptor subtypes are performed on GF/C Millipore 96-well plates pretreated with 0.02% polyethylenimine. The binding buffer for rat NPY Y2 receptor subtype binding is Krebs-Ringer bicarbonate (pH 7.4) containing 0.01% BSA and 0.005% bacitracin. Samples consist of membrane protein, 25 pM [^125I]PYY and test compounds at 5 µM final concentration. Nonspecific binding is defined by 1 µM NPY. The binding buffer for human Y4/PP1 binding consists of 137 mM NaCl, 5.4 mM KCl, 0.44 mM KH2PO4, 1.26 mM CaCl2, 0.81 mM MgSO4, 20 mM HEPES, 1 mM dithiothreitol, 0.1% bacitracin, 100 mg/l streptomycin sulfate, 1 mg/l aprotinin, 10 mg/ml soybean trypsin inhibitor and 0.3% BSA, pH 7.4. Samples consist of membrane protein, 50 pM human [^125I] human PP (hPP:NEN DuPont, Boston MA) and test compounds diluted to a final concentration of 5 µM. One µM hPP is used to define nonspecific binding. After a 2 hour incubation at room temperature with constant mixing, the samples are aspirated on a vacuum manifold, and rinsed with ice-cold binding buffer. The amount of radioactivity in each well is quantitated with either gamma counting or liquid scintillation.

[2] = molecular target: T2, human NPY Y5 receptor subtype (Homo sapiens, UniProt Q15761); assay: NPY Y5 receptor membrane binding, [125I]PYY (human); conditions: membrane protein; 75-100 pM [125I]PYY; 50% inhibition of specific binding; read-out: IC50 (µM) NPY receptor indicated hY5
T2 sequence (Q15761 1-445): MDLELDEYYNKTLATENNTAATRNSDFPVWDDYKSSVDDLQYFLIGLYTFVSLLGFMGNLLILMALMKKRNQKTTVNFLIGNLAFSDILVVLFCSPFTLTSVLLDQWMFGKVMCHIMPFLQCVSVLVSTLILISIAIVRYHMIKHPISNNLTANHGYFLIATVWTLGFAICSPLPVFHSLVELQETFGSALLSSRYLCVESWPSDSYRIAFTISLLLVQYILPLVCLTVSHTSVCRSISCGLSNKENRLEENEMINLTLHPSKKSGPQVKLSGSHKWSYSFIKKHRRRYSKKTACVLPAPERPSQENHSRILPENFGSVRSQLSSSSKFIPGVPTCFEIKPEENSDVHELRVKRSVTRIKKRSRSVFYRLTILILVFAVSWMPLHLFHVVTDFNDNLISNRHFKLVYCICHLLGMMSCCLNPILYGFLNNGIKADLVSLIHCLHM
Experimental: Assays to determine human and rat NPY Y5 receptor subtype binding affinity are performed on GF/C Millipore 96-well plates pretreated with 0.02% polyethylenimine. The binding buffer is 25 mM Tris, 120 mM NaCl, 5 mM KCl, 1.2 mM KH2PO4, 2.5 mM CaCl2, 1.2 mM MgSO4, 0.1% BSA and 0.5 mg/ml bacitracin, pH 7.4. Samples consist of membrane protein, 75-100 pM [^125I] PYY (porcine, NEN-DuPont) and test compounds diluted in binding buffer. Nonspecific binding is defined by 1 µM PYY. After a 2 hour incubation at room temperature with constant mixing, the samples are aspirated on a vacuum manifold and rinsed with ice-cold binding buffer. The amount of radioactivity in each well is quantitated with either gamma counting or liquid scintillation. IC50 values, which correspond to 50% inhibition of specific binding, are determined with non-linear regression analysis.

Sequence of human Y4/PP1 (P50391 whole entry): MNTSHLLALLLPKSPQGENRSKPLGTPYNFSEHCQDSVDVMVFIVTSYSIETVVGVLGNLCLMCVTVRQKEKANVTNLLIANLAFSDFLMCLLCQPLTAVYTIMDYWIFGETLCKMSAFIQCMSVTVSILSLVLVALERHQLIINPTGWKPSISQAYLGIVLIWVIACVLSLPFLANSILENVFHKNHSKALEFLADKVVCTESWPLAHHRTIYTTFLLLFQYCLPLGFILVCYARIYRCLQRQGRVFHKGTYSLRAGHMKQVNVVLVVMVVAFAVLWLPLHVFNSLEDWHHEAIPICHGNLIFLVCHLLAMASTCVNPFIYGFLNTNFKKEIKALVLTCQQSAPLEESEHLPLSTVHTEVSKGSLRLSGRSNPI

Compound	IC50 [1] [µM]	IC50 (human Y4/PP1) [µM]	IC50 [2] [µM]
Cc1ccc(SCC(C(=O)c2ncc[nH]2)c2ccccc2)cc1 (stereo not drawn) [Compound 2, (1H-Imidazol-2-yl)-2-phenyl-3-p-tolylsulfanyl-propan-1-one]	> 5	> 5	0.83
COc1ccc(S(=O)(=O)CC(C(=O)c2nc3ccccc3[nH]2)c2ccccc2)cc1 (stereo not drawn) [Compound 10, 1-(1H-Benzoimidazol-2-yl)-3-(4-methoxy-benzenesulfonyl)-2-phenyl-propan-1-one]	> 5	> 5	0.011
COc1ccc2[nH]c(C(=O)C(CS(=O)(=O)c3ccc(C)cc3)c3ccccc3)nc2c1 (stereo not drawn) [Compound 14, 1-(5-Methoxy-1H-benzoimidazol-2-yl)-2-phenyl-3-(toluene-4-sulfonyl)-propan-1-one]	> 5	> 5	0.08
Cc1ccc(S(=O)(=O)CC(C(=O)c2nc3ccccc3s2)c2ccccc2)cc1 (stereo not drawn) [Compound 6, 1-Benzothizol-2-yl-2-phenyl-3-(toluene-4-sulfonyl)-propan-1-one]	> 5	> 5	8.8
Cc1ccc(S(=O)(=O)CC(C(=O)c2nc3cc(C)c(C)cc3[nH]2)c2ccccc2)cc1 (stereo not drawn) [Compound 7, (5,6-Dimethyl-1H-benzoimidazol-2-yl)-2-phenyl-3-(toluene-4-sulfonyl)-propan-1-one]	> 5	> 5	0.06
O=C(c1nc2ccccc2[nH]1)C(CS(=O)(=O)c1ccccc1)c1ccccc1 (stereo not drawn) [Compound 8, 3-Benzenesulfonyl-1-(1H-benzoimidazol-2-yl)-2-phenyl-propan-1-one]	> 5	> 5	0.022
